# Publication PMC10895676, “Antiviral Activity of Lipophilic Nucleoside Tetraphosphate Compounds” (Journal of Medicinal Chemistry, 2024)
# Several values for one entry are separate records, joined by “and”; a condition that tells them apart may be missing. Identical values can stand only once. Like-named read-outs stand apart in the source and are kept apart here.
# Legend:
# [1] = cited from earlier work
# HIV-1 (HE) = test: Anti-HIV replication assay, HIV-1 (HE) in wild-type CEM/0 cells; type: cell-based; settings: for EC50: Human immunodeficiency virus 1, CCRF-CEM, wild-type CEM/0 cells, mean ± SD, n = 2–3, read-out: HIV-1 (HE) EC50
# Description: (§1) Inhibition of HIV-1(HE)- and HIV-2(ROD)-induced cytopathogenicity in wild-type CEM/0 CEM CD4^+ T-cells and thymidine kinase-deficient CEM/TK^– cell cultures was measured in microtiter 96-well plates containing ∼3 × 10^5 CEM cells/mL infected with 100 CCID50 of HIV per milliliter and containing appropriate dilutions of the test compounds. After 4–5 days of incubation at 37 °C in a CO2-controlled humidified atmosphere, virus-induced cellular effects and syncytia cell formation were examined microscopically. The EC50 (50% effective concentration) was defined as the compound concentration required to inhibit HIV-induced giant cell formation by 50%.
# HIV-2 (ROD) [2] = test: Anti-HIV replication assay, HIV-2 (ROD) in wild-type CEM/0 cells; type: cell-based; settings: for selectivity index (SI): CC50/EC50, HIV-2 (ROD) in CEM cells; for EC50: Human immunodeficiency virus 2, CCRF-CEM, read-out: HIV-2 (ROD) EC50
# Description: as §1, with “microscopically.” for “microscopically. The EC50 (50% effective concentration) was defined as the compound concentration required to inhibit HIV-induced giant cell formation by 50%.”
# [3] = Cytotoxicity, inhibition of CEM cell proliferation; type: cell-based; settings: human, CEM cells (CD4+ T-cells), read-out: toxicity CC50
# HIV-2 (ROD) [4] = test: Anti-HIV replication assay, HIV-2 (ROD) in thymidine kinase-deficient CEM/TK– cells; type: cell-based; settings: for selectivity index (SI): CC50/EC50, HIV-2 (ROD) in CEM/TK– cells; for EC50: Human immunodeficiency virus 2, CEM/TK– cells, mean ± SD, n = 2–3, read-out: CEM/TK– HIV-2 (ROD) EC50
# Description: as §1, with “microscopically.” for “microscopically. The EC50 (50% effective concentration) was defined as the compound concentration required to inhibit HIV-induced giant cell formation by 50%.”
# [5] = Cytotoxicity, inhibition of CEM/TK– cell proliferation; type: cell-based; settings: human, CEM/TK– cells (CD4+ T-cells), read-out: toxicity CC50
# [6] = Chemical hydrolysis in aqueous buffers (PBS pH 7.3 / 8.0, citrate buffer pH 2.0), RP18-HPLC; type: physicochemical; settings: phosphate buffered saline; 25 mM PBS, pH 7.3, 37 °C; read-out: PBS pH 7.3 t1/2 (converted)
# Description: All metabolite mixtures were analyzed and quantified by means of analytical RP18-HPLC (UV detection).
# The solution was incubated at 37 °C in a thermomixer. […] for each extraction and stored at −30 °C. When testing, samples were warmed up to room temperature, and 25 or 20 μL of the liquid was taken and injected into the analytical RP-18-HPLC instrument. Further aliquots were taken for monitoring the kinetic hydrolysis.
# 5.88 g of citric acid and 3.58 g of NaCl were dissolved in 82 mL of hydrochloric acid (0.1 mol/L). Then, sodium hydroxide was added to adjust the pH to 2.0.
# [7] = Hydrolysis in CEM/0 cell extracts; type: in vitro ADME; settings: human, 37 °C, read-out: CEM/0 cell extracts t1/2 (converted)
# Description: Next, TetraPPPPro-nucleotides 4–9 were incubated in human CD4^+ T-lymphocyte CEM/0 cell extracts to study their stability and identify the hydrolysis products.
# CEM cells were grown in RPMI-1640-based cell culture medium to a final density of ∼3 × 10^6 cells/mL. Cells were centrifuged for 10 min at 1250 rpm at 4 °C and washed twice with cold PBS, and the pellet was resuspended at 10^8 cells/mL and sonicated (Hielscher Ultrasound Techn., 100% amplitude, 3·times for 10 s) to destroy cell integrity. Next, the resulting cell suspension was centrifuged at 10,000 rpm to remove cell debris. Finally, the supernatant was divided into aliquots and frozen at −80 °C.
# 6.0 mM hydrolysis solutions of compounds 4–9 were prepared from 21 μL of 50 mM DMSO stock solutions and 154 μL of DMSO. Two different samples, including 10 μL of water and 10 μL of 6.0 mM hydrolysis solution, were prepared in 2 mL Eppendorf vials. Next, 50 μL of human CEM cell extracts or 50 μL of human citrate plasma were added to the mixture, the reaction was started, and the mixture was incubated at 37 °C for different time periods. The reactions were stopped by the addition of 150 μL of MeOH. The resulting suspension was kept on ice for 5 min, followed by defrosting and centrifugation at 14,000 rpm (Heraeus, Biofuge Pico) for 22 min. The supernatants (80 or 60 μL) were directly injected into HPLC. The calculation of t1/2 was performed analogously to that for the chemical hydrolysis studies.
# pig liver esterase (PLE) = test: Enzymatic hydrolysis with pig liver esterase (PLE); type: in vitro ADME; settings: pig liver esterase in phosphate buffer, PLE in phosphate buffer pH 7.3, 37 °C, read-out: PLE t1/2 (converted)
# Description: To confirm the enzymatic hydrolysis process, TetraPPPPro-nucleotides 4–9 bearing different kinds of lipophilic groups attached to the δ-phosph(on)ate group were incubated with PLE in phosphate buffer.
# Then, 833 μL of 50 mM phosphate buffer (pH 7.3) and 125 μL of DMSO were added to the 6.0 mM hydrolysis solutions. The reaction was started by addition of 62.5 μL of PLE in phosphate buffer (100 units/mL), and the mixture was incubated at 800 rpm at 37 °C in a thermomixer. (1). At different times, aliquots (75 μL) were taken and stopped by the addition of […] of MeOH. The mixture was stored in liquid nitrogen. When testing, samples were warmed up to room temperature, and 60 μL of the liquid was directly injected into HPLC analysis. (2). 40 μL for each extraction was stored in liquid nitrogen. When testing, samples were warmed up to room temperature, and 30 μL of the liquid was taken and injected into the analytical RP-18-HPLC instrument. The calculation of t1/2 was performed analogously to that for the chemical hydrolysis studies.
# [8] = wild-type CEM/0 cells, mean ± SD, n = 2–3
Compound,PBS pH 7.3 t1/2 ([1]; PBS) [h],EC50 (HIV-1 (HE)) [nM],selectivity index (SI) (HIV-2 (ROD) [2]),EC50 (HIV-2 (ROD) [2]; [8]) [nM],CC50 [3] [nM],selectivity index (SI) (HIV-2 (ROD) [4]),"improvement of antiviral activity as compared to the parent d4T (HIV-2 (ROD) [4]; HIV-2, CEM/TK– cells) [fold]",EC50 (HIV-2 (ROD) [4]) [nM],CC50 [5] [nM],half-life at 1.9 mM [6] [h],"increase in antiviral potency as compared to d4T (HIV-1 (HE); HIV-1, CEM/0 cells) [fold]","increase in antiviral potency as compared to d4T (HIV-2 (ROD) [2]; HIV-2, CEM/0 cells) [fold]",half-life at 0.86 mM [7] [h],half-life at 0.45 mM (pig liver esterase (PLE)) [h],EC50 (HIV-2 (ROD) [2]) [nM],PBS pH 7.3 t1/2 ([1]; buffer) [h]
"CCCCCCCCCCCCCCCCCCOP(=O)(OCc1ccc(OC(=O)CCCC)cc1)OP(=O)(O)OP(=O)(O)OC[C@@H]1C=C[C@H](n2cc(C)c(=O)[nH]c2=O)O1 (stereo partly drawn) [2a, γ-(AB-C4; C18)-d4TTP]",237,–,–,–,–,–,–,–,–,–,–,–,–,–,–,–
"CCCCCCCCCCCCOP(=O)(OCCCCCCCCCCCC)OP(=O)(O)OP(=O)(O)OP(=O)(O)OC[C@@H]1C=C[C@H](n2cc(C)c(=O)[nH]c2=O)O1 [4b, δ-(Alkyl-C12; alkyl-C12)-d4T4P]",–,170 ± 100,405,110 ± 50,44600,2927,> 1700,29 ± 37,84900,215,–,–,–,–,–,–
"CCCCCCCCCCCCCCCCCCOP(=O)(OCCCCCCCCCCCCCCCCCC)OP(=O)(O)OP(=O)(O)OP(=O)(O)OC[C@@H]1C=C[C@H](n2cc(C)c(=O)[nH]c2=O)O1 [4c, δ-(Alkyl-C18; alkyl-C18)-d4T4P]",–,1990 ± 900,24,2090 ± 580,50000,13,–,6180 ± 1000,84100,–,–,–,–,–,–,–
"CCCCCCCCCCCCCCCCCCOP(=O)(OCC(CC)CCCC)OP(=O)(O)OP(=O)(O)OP(=O)(O)OC[C@@H]1C=C[C@H](n2cc(C)c(=O)[nH]c2=O)O1 (stereo partly drawn) [4e, δ-(Alkyl-C8; alkyl-C18)-d4T4P]",–,440 ± 170,139,320 ± 90,44700,114,–,430 ± 210,48900,325,–,–,–,–,–,–
"CCCCCCCCCCCCCCCCCCP(=O)(OCC(CC)CCCC)OP(=O)(O)OP(=O)(O)OP(=O)(O)OC[C@@H]1C=C[C@H](n2cc(C)c(=O)[nH]c2=O)O1 (stereo partly drawn) [5b, δ-(Alkyl-C8)-δ-C-(alkyl-C18)-d4T4P]",–,1440 ± 700,>77,1300 ± 640,> 100000,312,–,160 ± 130,50000,> 1000,–,–,–,–,–,–
"CCCCCCCCCCCCCCCCCCP(=O)(OCc1ccc(OC(=O)CCCC)cc1)OP(=O)(O)OP(=O)(O)OP(=O)(O)OC[C@@H]1C=C[C@H](n2cc(C)c(=O)[nH]c2=O)O1 (stereo partly drawn) [compound 7, δ-(AB-C4)-δ-C-(alkyl-C18)-d4T4P]",–,9.2 ± 8.2,4330,9.1 ± 7.7,39400,5700 and 5677,–,6.5 ± 5.7,36900,> 600,36,107,> 8,0.5,–,–
"CCCCCCCCCCCCCCCCOC(=O)Oc1ccc(COP(=O)(OCc2ccc(OC(=O)CCCC)cc2)OP(=O)(O)OP(=O)(O)OP(=O)(O)OC[C@@H]2C=C[C@H](n3cc(C)c(=O)[nH]c3=O)O2)cc1 (stereo partly drawn) [compound 9, δ-(AB-C4; ACB-C16)-d4T4P]",–,170 ± 50,365,210 ± 110,76800,5,–,9710 ± 4780,50000,25,–,–,2.58,1.03,–,–
"Cc1cn([C@H]2C=C[C@@H](CO)O2)c(=O)[nH]c1=O [d4T, 3′-deoxy-2′,3′-didehydrothymidine, reference compound]",–,330 ± 130,–,–,> 50000,–,–,> 50000,> 50000,–,–,–,–,–,970 ± 500,–
β-(AB-C4)-β-C-(C18)-d4TDP [33b],–,–,–,–,–,–,–,–,–,–,–,–,–,–,–,> 1000
β-(AB-C4; C18)-d4TDP [33a],–,–,–,–,–,–,–,–,–,–,–,–,–,–,–,406
β-(alkyl-C4)-β-C-(alkyl-C18)-d4TDP,–,–,–,–,–,–,–,–,–,–,–,–,–,–,–,> 3000
